Source: US20240132484A1, “BROAD SPECTRUM ANTIVIRAL COMPOUNDS TARGETING THE SKI COMPLEX” (priority 2020, published 2024)
“And” between values parts separate entries of the source, which are not always exact repeats. Equal values may be shown once. Read-outs that look alike come from different tables or passages of the source.

Assays:
SARS2 = type: cell-based, SARS-CoV-2; conditions: for Percentage Infection Relative to Appropriate DMSO Control with Avg Background Subtraction: single well; for Percentage Inhibition Average 1 μM / Screening data (Relative infection to DMSO controls) Average 1 μM: SARS2, 1 μM; for Screening data (Relative infection to DMSO controls) Average 1 μM / Screening data (Relative infection to DMSO controls) Average 5 μM / Screening data (Relative infection to DMSO controls) Average 10 μM / Screening data (Relative infection to DMSO controls) Average 25 μM / Screening data (Relative infection to DMSO controls) Average 50 μM / Average (relative infection to DMSO over the 5 tested concentrations): 100=DMSO control; for Percentage Inhibition Average 5 μM / Screening data (Relative infection to DMSO controls) Average 5 μM: SARS2, 5 μM; for Percentage Inhibition Average 10 μM / Screening data (Relative infection to DMSO controls) Average 10 μM: SARS2, 10 μM; for Percentage Inhibition Average 25 μM / Screening data (Relative infection to DMSO controls) Average 25 μM: SARS2, 25 μM; for Percentage Inhibition Average 50 μM / Screening data (Relative infection to DMSO controls) Average 50 μM: SARS2, 50 μM; for Average (relative infection to DMSO over the 5 tested concentrations): SARS2, average over 1 to 50 uM
cells (nuclei count) = conditions: for Relative cell count to DMSO controls, Average 1 μM / Relative cell count to DMSO controls, Average 5 μM / Relative cell count to DMSO controls, Average 10 μM / Relative cell count to DMSO controls, Average 25 μM / Relative cell count to DMSO controls, Average 50 μM: toxicity data, 100=DMSO control; for Relative cell count to DMSO controls, Average (for correlation analysis): average value over the 5 tested concentrations (1 to 50 uM)

What does the source list for OC(COc1c(CNCCc2ccccc2F)cccc1N1CCNCC1)CN1CCCC1 (centres unmarked) [SILCS22]?
SARS2 antiviral activity (SARS2): activity approaching that of UMB18; Infection Data, Average, Mean (SARS2; Average of Exp 1-3, n 9, 1 uM): 72.38%; Infection Data, Average, Mean (SARS2; Average of Exp 1-3, n 9, 5 uM): 70.31%; Infection Data, Average, Mean (SARS2; Average of Exp 1-3, n 9, 10 uM): 53.13%; Infection Data, Average, Mean (SARS2; Average of Exp 1-3, n 9, 25 uM): 6.37%; Infection Data, Average, Mean (SARS2; Average of Exp 1-3, n 9, 50 uM): 2.68%; Percentage Infection Relative to Appropriate DMSO Control with Avg Background Subtraction (SARS2; Exp 1 (SMW475), 1 uM): 68.46% and 64.64% and 77.37%; Percentage Infection Relative to Appropriate DMSO Control with Avg Background Subtraction (SARS2; Exp 1 (SMW475), 5 uM): 32.75% and 46.98% and 35.47%; Percentage Infection Relative to Appropriate DMSO Control with Avg Background Subtraction (SARS2; Exp 1 (SMW475), 10 uM): 15.62% and 28.80% and 29.55%; Percentage Infection Relative to Appropriate DMSO Control with Avg Background Subtraction (SARS2; Exp 1 (SMW475), 25 uM): 2.49% and 6.38% and 4.75%; Percentage Infection Relative to Appropriate DMSO Control with Avg Background Subtraction (SARS2; Exp 1 (SMW475), 50 uM): 0.02% and 3.92% and 4.65%; Percentage Infection Relative to Appropriate DMSO Control with Avg Background Subtraction (SARS2; Exp 2 (SMW477), 1 uM): 76.88% and 75.65% and 76.95%; Percentage Infection Relative to Appropriate DMSO Control with Avg Background Subtraction (SARS2; Exp 2 (SMW477), 5 uM): 93.66% and 92.49% and 88.62%; Percentage Infection Relative to Appropriate DMSO Control with Avg Background Subtraction (SARS2; Exp 2 (SMW477), 10 uM): 68.54% and 46.53% and 47.36%; Percentage Infection Relative to Appropriate DMSO Control with Avg Background Subtraction (SARS2; Exp 2 (SMW477), 25 uM): 5.13% and 4.50% and 4.04%; Percentage Infection Relative to Appropriate DMSO Control with Avg Background Subtraction (SARS2; Exp 2 (SMW477), 50 uM): 3.65% and 0.99% and 1.90%; Percentage Infection Relative to Appropriate DMSO Control with Avg Background Subtraction (SARS2; Exp 3 (SMW478), 1 uM): 62.06% and 83.81% and 65.64%; Percentage Infection Relative to Appropriate DMSO Control with Avg Background Subtraction (SARS2; Exp 3 (SMW478), 5 uM): 69.69% and 88.68% and 84.47%; Percentage Infection Relative to Appropriate DMSO Control with Avg Background Subtraction (SARS2; Exp 3 (SMW478), 10 uM): 92.75% and 69.87% and 79.13%; Percentage Infection Relative to Appropriate DMSO Control with Avg Background Subtraction (SARS2; Exp 3 (SMW478), 25 uM): 8.14% and 10.91% and 10.99%; Percentage Infection Relative to Appropriate DMSO Control with Avg Background Subtraction (SARS2; Exp 3 (SMW478), 50 uM): 1.60% and 3.82% and 3.54%; Percentage Inhibition Average 1 μM (SARS2): 27.62%; Screening data (Relative infection to DMSO controls) Average 1 μM (SARS2): 72.38; Percentage Inhibition Average 5 μM (SARS2): 29.69%; Screening data (Relative infection to DMSO controls) Average 5 μM (SARS2): 70.31; Percentage Inhibition Average 10 μM (SARS2): 46.87%; Screening data (Relative infection to DMSO controls) Average 10 μM (SARS2): 53.13; Percentage Inhibition Average 25 μM (SARS2): 93.63%; Screening data (Relative infection to DMSO controls) Average 25 μM (SARS2): 6.37; Percentage Inhibition Average 50 μM (SARS2): 97.32%; Screening data (Relative infection to DMSO controls) Average 50 μM (SARS2): 2.68; Average (relative infection to DMSO over the 5 tested concentrations) (SARS2): 40.97; Relative cell count to DMSO controls, Average 1 μM (cells (nuclei count)): 126.41; Relative cell count to DMSO controls, Average 5 μM (cells (nuclei count)): 125.64; Relative cell count to DMSO controls, Average 10 μM (cells (nuclei count)): 137.18; Relative cell count to DMSO controls, Average 25 μM (cells (nuclei count)): 131.85; Relative cell count to DMSO controls, Average 50 μM (cells (nuclei count)): 68.81; Toxicity Data, Average, Mean (cells (nuclei count); Average of Exp 1-3, n 9, 1 uM): 126.41%; Toxicity Data, Average, Mean (cells (nuclei count); Average of Exp 1-3, n 9, 5 uM): 125.64%; Toxicity Data, Average, Mean (cells (nuclei count); Average of Exp 1-3, n 9, 10 uM): 137.18%; Toxicity Data, Average, Mean (cells (nuclei count); Average of Exp 1-3, n 9, 25 uM): 131.85%; Toxicity Data, Average, Mean (cells (nuclei count); Average of Exp 1-3, n 9, 50 uM): 68.81%; Relative cell count to DMSO controls, Average (for correlation analysis) (cells (nuclei count)): 117.98

How did the “SARS2 antiviral activity” value (SARS2) turn out when CN1CCN(CC(O)COc2cccc(N3CCCCC3)c2CNCCc2ccccc2F)CC1 (centres unmarked) [SILCS10] was run?
The value was “strong activity”.

And the “Percentage Inhibition Average 1 μM” value (SARS2)?
The value was 47.40%.

And the “Screening data (Relative infection to DMSO controls) Average 1 μM” value (SARS2)?
The value was 52.60.

And the “Percentage Inhibition Average 5 μM” value (SARS2)?
The value was 56.27%.

And the “Screening data (Relative infection to DMSO controls) Average 5 μM” value (SARS2)?
Its value is 43.73.

What about the “Percentage Inhibition Average 10 μM” value (SARS2) of the same compound?
The value was 58.42%.

What about the “Screening data (Relative infection to DMSO controls) Average 10 μM” value (SARS2) of the same compound?
The value was 41.58.

What about the “Percentage Inhibition Average 25 μM” value (SARS2) of the same compound?
The value was 66.00%.

What about the “Screening data (Relative infection to DMSO controls) Average 25 μM” value (SARS2) of the same compound?
The value was 34.00.

What about the “Percentage Inhibition Average 50 μM” value (SARS2) of the same compound?
The value was 93.61%.

And the “Screening data (Relative infection to DMSO controls) Average 50 μM” value (SARS2)?
Its value is 6.39.

What about the “Average (relative infection to DMSO over the 5 tested concentrations)” value (SARS2) of the same compound?
Its value is 35.66.

What about the “Relative cell count to DMSO controls, Average 1 μM” value (cells (nuclei count)) of the same compound?
The value was 131.94.

What about the “Relative cell count to DMSO controls, Average 5 μM” value (cells (nuclei count)) of the same compound?
The value was 141.21.

What about the “Relative cell count to DMSO controls, Average 10 μM” value (cells (nuclei count)) of the same compound?
Its value is 131.

What about the “Relative cell count to DMSO controls, Average 25 μM” value (cells (nuclei count)) of the same compound?
The value was 50.46.

What about the “Relative cell count to DMSO controls, Average 50 μM” value (cells (nuclei count)) of the same compound?
Its value is 84.08.

And the “Toxicity Data, Average, Mean (relative to DMSO control)” value (cells (nuclei count); Average of Exp 1-3, 1 uM)?
The value was 131.94%.

What about the “Toxicity Data, Average, Mean (relative to DMSO control)” value (cells (nuclei count); Average of Exp 1-3, 5 uM) of the same compound?
Its value is 141.21%.

And the “Toxicity Data, Average, Mean (relative to DMSO control)” value (cells (nuclei count); Average of Exp 1-3, 10 uM)?
Its value is 131.00%.

What about the “Toxicity Data, Average, Mean (relative to DMSO control)” value (cells (nuclei count); Average of Exp 1-3, 25 uM) of the same compound?
Its value is 50.46%.

And the “Toxicity Data, Average, Mean (relative to DMSO control)” value (cells (nuclei count); Average of Exp 1-3, 50 uM)?
The value was 84.08%.

What about the “Relative cell count to DMSO controls, Average (for correlation analysis)” value (cells (nuclei count)) of the same compound?
The value was 107.74.

How did the “Percentage Inhibition Average 1 μM” value (SARS2) turn out when CC1=C(C(=O)NCC2CCCCC2)C(c2cccs2)NC(=O)N1 (centres unmarked) [SILCS70] was run?
Its value is 71.98%.

And the “Screening data (Relative infection to DMSO controls) Average 1 μM” value (SARS2)?
The value was 28.02.

And the “Percentage Inhibition Average 5 μM” value (SARS2)?
Its value is 38.83%.

And the “Screening data (Relative infection to DMSO controls) Average 5 μM” value (SARS2)?
Its value is 61.17.

And the “Percentage Inhibition Average 10 μM” value (SARS2)?
Its value is 10.99%.

And the “Screening data (Relative infection to DMSO controls) Average 10 μM” value (SARS2)?
Its value is 89.01.

And the “Percentage Inhibition Average 25 μM” value (SARS2)?
The value was −45.91%.

What about the “Screening data (Relative infection to DMSO controls) Average 25 μM” value (SARS2) of the same compound?
Its value is 145.91.

And the “Percentage Inhibition Average 50 μM” value (SARS2)?
The value was −47.89%.

What about the “Screening data (Relative infection to DMSO controls) Average 50 μM” value (SARS2) of the same compound?
Its value is 147.89.

What about the “Average (relative infection to DMSO over the 5 tested concentrations)” value (SARS2) of the same compound?
Its value is 94.40.

And the “Relative cell count to DMSO controls, Average 1 μM” value (cells (nuclei count))?
The value was 130.04.

And the “Relative cell count to DMSO controls, Average 5 μM” value (cells (nuclei count))?
The value was 111.32.

What about the “Relative cell count to DMSO controls, Average 10 μM” value (cells (nuclei count)) of the same compound?
The value was 104.3.

What about the “Relative cell count to DMSO controls, Average 25 μM” value (cells (nuclei count)) of the same compound?
The value was 93.9.

And the “Relative cell count to DMSO controls, Average 50 μM” value (cells (nuclei count))?
Its value is 79.59.

And the “Relative cell count to DMSO controls, Average (for correlation analysis)” value (cells (nuclei count))?
The value was 103.83.
